In test [1] the test system is Escherichia coli. The experiment in a line: Inhibition of Escherichia coli MurD ligase assessed as residual activity at 500 uM after 15 mins using UDP-MurNAc-L-Ala substrate by malachite green colorimetric method.
The nature of test [2]: Inhibition of Escherichia coli MurD ligase assessed as residual activity after 15 mins using UDP-MurNAc-L-Ala substrate by malachite green colorimetric method.
Another test has as its system Staphylococcus aureus. The experiment in a line: Antibacterial activity against Staphylococcus aureus ATCC 29213 after 18 to 24 hrs by macrodilution technique. The class given is functional.
For test [3], the system named is Escherichia coli. The experiment in a line: Antibacterial activity against Escherichia coli ATCC 25922 after 18 to 24 hrs by macrodilution technique. The class given is functional.
In the next test the test system is Pseudomonas aeruginosa. The experiment in a line: Antibacterial activity against Pseudomonas aeruginosa […] after 18 to 24 hrs by macrodilution technique. It counts as functional.
The nature of test [4]: Inhibition of Escherichia coli MurD ligase assessed as addition of D-[14C]glu to UDP-N-acetyl-muramoyl-L-alanine after 30 mins by radioactivity assay.
The next test concerns Enterococcus faecalis. The experiment in a line: Antibacterial activity against Enterococcus faecalis ATCC 29212 after 18 to 24 hrs by macrodilution technique. It counts as functional.
For test [5], the system named is Escherichia coli. The experiment in a line: Inhibition of Escherichia coli MurD ligase assessed as residual activity at 250 uM after 15 mins using UDP-MurNAc-L-Ala substrate by malachite green colorimetric method.

Converted amounts (≈) assume the structure as drawn. A value given as a limit tells only on which side of the number the result lay.

One may read the IC50 as the midpoint of a concentration-inhibition curve. By MBC is commonly meant the smallest concentration meeting the test's criterion for killing. The low end stands for greater bactericidal potency, the high end for weaker bactericidal potency. The MIC is the lowest concentration found to suppress growth. A low value points to inhibition by little substance.

As to `O=C(O)CC[C@@H](NC(=O)c1ccc(COc2cccc(/C=C3\SC(=O)NC3=O)c2)cc1)C(=O)O`, the Activity in the test with Escherichia coli [1] was 79%.
For `O=C(O)CC[C@@H](NC(=O)c1cccc(COc2ccc(/C=C3\SC(=O)NC3=O)cc2)c1)C(=O)O`, in test [2], the concentration for half-maximal inhibition (IC50) worked out at 128 µM.
For `O=C(O)CC[C@@H](NC(=O)c1cccc(COc2ccc(Cn3ccc(=O)[nH]c3=O)cc2)c1)C(=O)O`, the Activity with Escherichia coli [1] was 86%.
`O=C(O)CC[C@@H](NS(=O)(=O)c1ccc(COc2cccc(/C=C3\SC(=S)NC3=O)c2)cc1)C(=O)O`: the minimal bactericidal concentration (MBC) with Staphylococcus aureus, in the test on Escherichia coli [3], against Pseudomonas aeruginosa and against Enterococcus faecalis was more than 128 µg/mL in each case. The minimum inhibitory concentration (MIC) against Staphylococcus aureus, with Escherichia coli [3], with Pseudomonas aeruginosa and against Enterococcus faecalis was more than 128 µg/mL in each case. For the same molecule, in test [4], the concentration for half-maximal inhibition (IC50) came out at 45 µM.
For `O=C(O)CC[C@@H](NC(=O)c1cccc(COc2ccc(/C=C3\SC(=S)NC3=O)cc2)c1)C(=O)O`, the IC50 in test [2] was found to be 76 µM.
For `O=C(O)CC[C@@H](NC(=O)c1cccc(CNc2ccc(/C=C3\SC(=S)NC3=O)cc2)c1)C(=O)O`, the half-inhibitory concentration (IC50) in test [4] was 45 µM.
Take `O=C(O)CC[C@@H](NC(=O)c1cccc(COc2cccc(/C=C3\SC(=O)NC3=O)c2)c1)C(=O)O`: the Activity in the test with Escherichia coli [1] was found to be 65%.
On to `O=C(O)CC[C@@H](NC(=O)c1ccc(COc2ccc(Cn3ccc(=O)[nH]c3=O)cc2)cc1)C(=O)O`, for which, in the test on Escherichia coli [1], the Activity is 85%.
With `O=C(O)CC[C@@H](NS(=O)(=O)c1ccc(COc2cccc(/C=C3\SC(=O)NC3=O)c2)cc1)C(=O)O`, in the test with Escherichia coli [5], the Activity was 71%.
As for `O=C(O)CC[C@@H](NC(=O)c1ccc(COc2ccc(/C=C3\SC(=O)NC3=O)cc2OCC(=O)O)cc1)C(=O)O`, in the test with Escherichia coli [1], the Activity is 86%.
Regarding `O=C(O)CC[C@@H](NC(=O)c1ccc(COc2ccc(/C=C3\SC(=S)NC3=O)cc2OCC(=O)O)cc1)C(=O)O`, the minimal bactericidal concentration (MBC) against Staphylococcus aureus, in the test with Escherichia coli [3], in the test with Pseudomonas aeruginosa and in the test with Enterococcus faecalis was more than 128 µg/mL throughout. For the same molecule, the MIC against Staphylococcus aureus is 128 µg/mL (≈ 223 µM); against Escherichia coli [3], more than 128 µg/mL; against Pseudomonas aeruginosa, more than 128 µg/mL; in the test on Enterococcus faecalis it was 128 µg/mL (≈ 223 µM). Further, the IC50 in test [4] is 34 µM.
Regarding `O=C(O)CC[C@@H](NS(=O)(=O)c1ccc(COc2ccc(/C=C3\SC(=S)NC3=O)cc2OCC(=O)O)cc1)C(=O)O`, in test [2], the IC50 is 472 µM.
As for `O=C(O)CC[C@@H](NC(=O)c1cccc(COc2cccc(/C=C3\SC(=S)NC3=O)c2)c1)C(=O)O`, in test [4], the IC50 was found to be 47 µM.
For the molecule `O=C(O)CC[C@@H](NS(=O)(=O)c1ccc(COc2ccc(/C=C3\SC(=S)NC3=O)cc2)cc1)C(=O)O`, the IC50 in test [4] is 120 µM.
Regarding `O=C(O)CC[C@@H](NS(=O)(=O)c1ccc(COc2ccc(/C=C3\SC(=O)NC3=O)cc2OCC(=O)O)cc1)C(=O)O`, the IC50 in test [2] stood at 814 µM.
Consider `O=C(O)CC[C@@H](NC(=O)c1ccc(COc2cccc(/C=C3\SC(=S)NC3=O)c2)cc1)C(=O)O`, for which the minimal bactericidal concentration (MBC) in the test on Staphylococcus aureus, against Escherichia coli [3], with Pseudomonas aeruginosa and in the test on Enterococcus faecalis was more than 128 µg/mL in each case. In addition, the MIC against Staphylococcus aureus, against Escherichia coli [3], in the test on Pseudomonas aeruginosa and against Enterococcus faecalis was more than 128 µg/mL throughout. In test [4], the IC50 stood at 28 µM.

For the origin of these results see ChEMBL document CHEMBL1926672, “New 5-benzylidenethiazolidin-4-one inhibitors of bacterial MurD ligase: design, synthesis, crystal structures, and biological evaluation” (Eur J Med Chem, 2011).
